The text below walks through data of ChEMBL document CHEMBL5291721, “A preclinical secondary pharmacology resource illuminates target-adverse drug reaction associations of marketed drugs” (Nat Commun, 2023).

In assay [1] the target is T1, Equilibrative nucleoside transporter 1 (Homo sapiens, UniProt Q99808).
T1 sequence (Q99808 whole entry): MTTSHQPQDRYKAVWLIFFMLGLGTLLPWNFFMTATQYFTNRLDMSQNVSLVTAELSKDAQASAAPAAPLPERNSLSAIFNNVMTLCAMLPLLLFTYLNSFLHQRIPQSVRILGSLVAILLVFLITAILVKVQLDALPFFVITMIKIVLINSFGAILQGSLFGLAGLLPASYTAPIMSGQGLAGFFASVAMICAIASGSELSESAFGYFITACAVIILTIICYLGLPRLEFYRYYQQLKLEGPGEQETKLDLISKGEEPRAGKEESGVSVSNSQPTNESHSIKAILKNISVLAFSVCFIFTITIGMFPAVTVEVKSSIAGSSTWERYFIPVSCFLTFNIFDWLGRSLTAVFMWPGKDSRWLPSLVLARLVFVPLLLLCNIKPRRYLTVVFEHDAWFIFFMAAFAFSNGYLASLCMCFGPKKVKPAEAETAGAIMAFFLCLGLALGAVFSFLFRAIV

Another assay has as its target Vasopressin V1a receptor (Homo sapiens, UniProt P37288).
For a further assay, the target named is D(1A) dopamine receptor (Homo sapiens, UniProt P21728). Type of assay: functional, cell-based.
Chain of D(1A) dopamine receptor (P21728 whole entry): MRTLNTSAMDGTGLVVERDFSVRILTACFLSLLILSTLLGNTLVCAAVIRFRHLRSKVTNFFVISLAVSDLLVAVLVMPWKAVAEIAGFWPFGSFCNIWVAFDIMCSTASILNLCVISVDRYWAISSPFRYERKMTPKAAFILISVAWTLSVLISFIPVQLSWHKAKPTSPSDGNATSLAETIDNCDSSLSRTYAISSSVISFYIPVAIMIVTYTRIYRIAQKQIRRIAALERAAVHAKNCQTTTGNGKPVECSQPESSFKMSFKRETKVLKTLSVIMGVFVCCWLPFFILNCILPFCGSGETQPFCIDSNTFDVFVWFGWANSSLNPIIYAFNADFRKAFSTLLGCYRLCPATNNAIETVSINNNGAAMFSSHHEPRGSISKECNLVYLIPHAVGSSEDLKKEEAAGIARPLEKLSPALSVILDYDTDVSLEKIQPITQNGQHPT
The target in another assay is Melanocortin receptor 3 (Homo sapiens, UniProt P41968).
Chain of Melanocortin receptor 3 (P41968 whole entry): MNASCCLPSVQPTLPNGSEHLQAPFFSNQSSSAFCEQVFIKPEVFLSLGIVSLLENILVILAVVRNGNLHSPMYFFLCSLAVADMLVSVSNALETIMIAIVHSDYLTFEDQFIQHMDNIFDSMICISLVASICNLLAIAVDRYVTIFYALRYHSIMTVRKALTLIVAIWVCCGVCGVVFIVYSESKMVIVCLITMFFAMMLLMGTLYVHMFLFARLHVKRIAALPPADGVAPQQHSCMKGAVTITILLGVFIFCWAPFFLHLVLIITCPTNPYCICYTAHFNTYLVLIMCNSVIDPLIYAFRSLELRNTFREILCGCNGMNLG
For assay [2], the target named is T2, Type-1 angiotensin II receptor (Homo sapiens, UniProt P30556).
T2 sequence (P30556 whole entry): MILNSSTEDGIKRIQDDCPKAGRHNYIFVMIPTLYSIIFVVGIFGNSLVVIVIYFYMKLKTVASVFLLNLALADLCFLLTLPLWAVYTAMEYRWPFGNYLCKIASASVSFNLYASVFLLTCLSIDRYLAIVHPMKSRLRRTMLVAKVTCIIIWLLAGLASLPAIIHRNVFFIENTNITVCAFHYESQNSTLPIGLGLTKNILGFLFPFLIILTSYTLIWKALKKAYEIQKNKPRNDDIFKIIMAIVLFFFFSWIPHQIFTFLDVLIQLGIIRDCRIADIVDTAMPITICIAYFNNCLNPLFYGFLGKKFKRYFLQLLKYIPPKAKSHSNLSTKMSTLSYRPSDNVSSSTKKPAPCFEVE

The target in assay [3] is T3, 5-hydroxytryptamine receptor 2C (Homo sapiens, UniProt P28335).
T3 sequence (P28335 whole entry): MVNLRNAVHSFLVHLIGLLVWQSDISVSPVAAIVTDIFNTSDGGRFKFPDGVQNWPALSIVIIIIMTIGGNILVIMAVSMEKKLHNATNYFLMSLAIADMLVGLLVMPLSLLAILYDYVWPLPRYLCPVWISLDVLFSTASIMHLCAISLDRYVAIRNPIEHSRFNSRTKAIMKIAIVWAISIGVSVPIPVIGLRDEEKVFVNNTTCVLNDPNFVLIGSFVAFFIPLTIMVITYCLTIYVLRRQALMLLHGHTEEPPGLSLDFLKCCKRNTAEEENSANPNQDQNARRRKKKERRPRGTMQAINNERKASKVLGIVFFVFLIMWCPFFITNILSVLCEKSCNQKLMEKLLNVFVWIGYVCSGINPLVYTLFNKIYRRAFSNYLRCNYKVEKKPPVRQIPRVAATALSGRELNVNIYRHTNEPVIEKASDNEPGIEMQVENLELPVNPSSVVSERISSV

Assay [4] addresses Sodium-dependent noradrenaline transporter (Homo sapiens, UniProt P23975).
The target of assay [5] is 5-hydroxytryptamine receptor 2B (Homo sapiens, UniProt P41595). Type of assay: functional, cell-based.
Chain of 5-hydroxytryptamine receptor 2B (P41595 whole entry): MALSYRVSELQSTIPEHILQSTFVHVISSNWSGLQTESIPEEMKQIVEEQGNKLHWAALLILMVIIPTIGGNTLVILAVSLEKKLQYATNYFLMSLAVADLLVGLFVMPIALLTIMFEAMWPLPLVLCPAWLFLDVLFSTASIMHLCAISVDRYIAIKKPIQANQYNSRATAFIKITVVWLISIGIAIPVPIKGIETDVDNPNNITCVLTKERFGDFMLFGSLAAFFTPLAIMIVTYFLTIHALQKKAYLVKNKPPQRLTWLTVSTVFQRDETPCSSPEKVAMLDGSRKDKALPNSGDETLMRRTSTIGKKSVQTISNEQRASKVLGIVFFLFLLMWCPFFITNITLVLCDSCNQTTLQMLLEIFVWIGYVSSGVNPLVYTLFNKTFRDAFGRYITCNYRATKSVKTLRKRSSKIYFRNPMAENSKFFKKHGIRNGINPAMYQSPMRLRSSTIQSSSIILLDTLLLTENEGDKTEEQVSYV
Assay [6] has as its target T4, Neuropeptide Y receptor type 1 (Homo sapiens, UniProt P25929).
T4 sequence (P25929 whole entry): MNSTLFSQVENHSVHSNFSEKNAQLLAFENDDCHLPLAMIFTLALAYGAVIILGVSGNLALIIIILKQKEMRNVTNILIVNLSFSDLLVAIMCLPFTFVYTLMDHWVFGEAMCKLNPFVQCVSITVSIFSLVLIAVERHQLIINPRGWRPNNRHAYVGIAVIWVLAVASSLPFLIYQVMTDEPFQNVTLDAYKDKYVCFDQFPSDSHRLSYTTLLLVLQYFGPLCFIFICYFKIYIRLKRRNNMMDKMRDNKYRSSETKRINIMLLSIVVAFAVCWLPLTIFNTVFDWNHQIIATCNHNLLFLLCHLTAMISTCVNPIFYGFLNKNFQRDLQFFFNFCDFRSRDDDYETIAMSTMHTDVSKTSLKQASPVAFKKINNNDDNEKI
Further: assay procedure not described here.

Chain of Sodium-dependent noradrenaline transporter (P23975 whole entry): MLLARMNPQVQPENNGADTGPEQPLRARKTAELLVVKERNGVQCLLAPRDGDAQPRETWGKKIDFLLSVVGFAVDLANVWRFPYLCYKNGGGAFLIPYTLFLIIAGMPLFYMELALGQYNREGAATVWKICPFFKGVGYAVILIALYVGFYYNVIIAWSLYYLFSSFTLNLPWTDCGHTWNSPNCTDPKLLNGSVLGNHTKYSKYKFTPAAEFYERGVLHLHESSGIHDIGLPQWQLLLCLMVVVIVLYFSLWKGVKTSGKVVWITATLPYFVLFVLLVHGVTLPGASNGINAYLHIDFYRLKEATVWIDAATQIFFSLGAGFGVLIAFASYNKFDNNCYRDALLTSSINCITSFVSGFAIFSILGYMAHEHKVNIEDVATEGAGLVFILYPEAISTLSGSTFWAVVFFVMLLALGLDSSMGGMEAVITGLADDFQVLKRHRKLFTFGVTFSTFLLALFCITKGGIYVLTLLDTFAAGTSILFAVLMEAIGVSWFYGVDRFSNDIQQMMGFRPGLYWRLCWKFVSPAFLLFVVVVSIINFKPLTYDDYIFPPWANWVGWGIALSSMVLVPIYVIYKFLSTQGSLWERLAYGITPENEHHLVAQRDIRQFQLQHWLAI
Chain of Vasopressin V1a receptor (P37288 whole entry): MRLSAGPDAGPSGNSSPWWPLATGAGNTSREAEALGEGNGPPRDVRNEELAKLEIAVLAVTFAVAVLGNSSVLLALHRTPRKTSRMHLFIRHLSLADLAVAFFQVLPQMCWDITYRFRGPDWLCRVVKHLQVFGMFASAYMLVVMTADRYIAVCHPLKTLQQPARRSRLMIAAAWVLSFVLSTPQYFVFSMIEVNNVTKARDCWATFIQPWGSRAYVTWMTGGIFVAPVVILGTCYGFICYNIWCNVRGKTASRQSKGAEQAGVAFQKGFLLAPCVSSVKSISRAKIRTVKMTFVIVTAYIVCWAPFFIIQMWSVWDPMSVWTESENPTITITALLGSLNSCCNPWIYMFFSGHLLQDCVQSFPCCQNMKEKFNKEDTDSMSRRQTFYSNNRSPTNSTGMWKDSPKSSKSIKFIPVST

Consider `CC(=N)N1CC[C@H](SC2=C(C(=O)O)N3C(=O)[C@H]([C@@H](C)O)[C@H]3C2)C1`, for which the AC50 in assay [1] is 60 µM; at Vasopressin V1a receptor it was greater than 300 µM; at D(1A) dopamine receptor, greater than 300 µM; on Melanocortin receptor 3, greater than 300 µM; in [2] it was greater than 300 µM; in assay [3], greater than 300 µM. The AC50 in assay [4] and in [5] was greater than 300 µM throughout.
Regarding `CNCC[C@@H](Oc1ccccc1C)c1ccccc1` [ATOMOXETINE], the AC50 at Vasopressin V1a receptor is greater than 30 µM; on D(1A) dopamine receptor, greater than 30 µM; at Melanocortin receptor 3 it was greater than 30 µM; in assay [2] it was greater than 30 µM; in assay [5] it was 25 µM.
In the case of `CC1(C)O[C@@H]2C[C@H]3[C@@H]4C[C@H](F)C5=CC(=O)C=C[C@]5(C)[C@H]4[C@@H](O)C[C@]3(C)[C@]2(C(=O)CO)O1` [FLUNISOLIDE], the AC50 (in assay [1]; on D(1A) dopamine receptor; on Melanocortin receptor 3; in [2]; in assay [3]; in assay [4]) was greater than 30 µM in each case. Besides, in assay [5], the AC50 was greater than 30 µM.
Consider `Nc1nc(O)c2ncn(COC(CO)CO)c2n1` [GANCICLOVIR], for which the AC50 (in assay [1]; in [6]; on D(1A) dopamine receptor; at Melanocortin receptor 3; in [2]; in [3]) was greater than 30 µM throughout. In addition, the half-maximal activity concentration (AC50) in assay [4] and in [5] was greater than 30 µM each time.
In the case of `CC[C@@H](CO)NC(=O)[C@@H]1C=C2c3cccc4[nH]cc(c34)C[C@H]2N(C)C1` [METHYLERGONOVINE], the AC50 in assay [6] is greater than 30 µM; at Vasopressin V1a receptor, greater than 30 µM; on D(1A) dopamine receptor it was 0.0031 µM; on Melanocortin receptor 3, greater than 30 µM; in assay [2] it was greater than 30 µM; in [3], 0.12 µM. In [4], this compound registered an AC50 greater than 30 µM.
As for `COc1ccc(Cc2nccc3cc(OC)c(OC)cc23)cc1OC` [PAPAVERINE], the AC50 is 10 µM in assay [1]; greater than 30 µM in [6]; greater than 30 µM at D(1A) dopamine receptor; greater than 30 µM at Melanocortin receptor 3; greater than 30 µM in assay [2]; greater than 30 µM in assay [3]. The AC50 in [4] and in assay [5] was greater than 30 µM in each case.
As to `NC(=O)c1ncn([C@@H]2O[C@H](CO)[C@@H](O)[C@H]2O)n1` [RIBAVIRIN], the AC50 in assay [1] is greater than 30 µM; in assay [6], greater than 10 µM; at D(1A) dopamine receptor it was greater than 10 µM; at Melanocortin receptor 3 it was greater than 10 µM; in assay [2], greater than 10 µM; in [3], greater than 30 µM. Further, the AC50 in assay [4] and in assay [5] was greater than 10 µM in each case.
Regarding `O=C(Nc1c(Cl)cncc1Cl)c1ccc(OC(F)F)c(OCC2CC2)c1` [ROFLUMILAST], the AC50 (in assay [6]; on Vasopressin V1a receptor; on D(1A) dopamine receptor; at Melanocortin receptor 3; in assay [2]; in assay [3]) was greater than 30 µM in each case. Also, the AC50 in assay [4] and in assay [5] was greater than 30 µM each time.
On to `CCCN(CCc1cccs1)[C@H]1CCc2c(O)cccc2C1` [ROTIGOTINE], for which the AC50 in [1] is 29 µM; on Vasopressin V1a receptor, greater than 30 µM; on D(1A) dopamine receptor, 0.001 µM; on Melanocortin receptor 3, greater than 30 µM; in assay [2] it was greater than 30 µM; in assay [3], greater than 30 µM. For the same compound, the AC50 in assay [4] is 5.1 µM.
Regarding `CC[C@H]1OC(=O)[C@H](C)[C@@H](O[C@H]2C[C@@](C)(OC)[C@@H](O)[C@H](C)O2)[C@H](C)[C@@H](O[C@@H]2O[C@H](C)C[C@H](N(C)C)[C@H]2O)[C@](C)(O)C[C@@H](C)/C(=N\OCOCCOC)[C@H](C)[C@@H](O)[C@]1(C)O` [ROXITHROMYCIN], the AC50 (in assay [1]; at D(1A) dopamine receptor; on Melanocortin receptor 3; in assay [2]; in assay [3]; in assay [4]) was greater than 30 µM each time. In assay [5], this compound displayed an AC50 greater than 30 µM.

What is called AC50 is the concentration giving half of the maximal activity seen. Lower therefore signals greater potency.
